Tests used:
[1] = system: procaspase-3, cleaved caspase-3, procaspase-8, cleaved caspase-8, PARP in A549 cells; experiment: Apoptosis-related molecular markers by Western Blot; format: cell-based, human; conditions: 24 hr or 48 hr; interferons at 10 mcg/ml
Source text: (§1) Thereafter, apoptosis-related molecular markers were monitored by Western Blot. The primary antibodies used were mouse monoclonal anti-beta-tubulin (1:2000, Cat #: CW0098A) and mouse monoclonal anti-GAPDH (1:2000, Cat #: CW0100A) (Kangwei Biotechnology, China); mouse monoclonal anti-PARP (1:1000, Cat #: se-2007, Santa Cruz Biotechnology, Inc.); rabbit monoclonal anti-procaspase 3 (1:1000, Cat #: 9665), and rabbit polyclonal anti-cleaved caspase 3 (1:1000, Cat #: 9661) (Cell Signaling Technology, USA); goat polyclonal anti-procaspase 8 (1:1000, Cat #: sc-6136, Santa Cruz Biotechnology, Inc); rabbit monoclonal anti-cleaved caspase 8 (1:1000, Cat #: 9496) (Cell Signaling Technology, USA).

[2] = system: procaspase-3, cleaved caspase-3, procaspase-8, cleaved caspase-8, PARP in SW620 cells; experiment: as above; format: cell-based, human; conditions: 24 hr or 48 hr; interferons at 10 mcg/ml
Source text: as §1

[3] = system: human lung cancer SPC-A4 xenografts; experiment: Human lung cancer SPC-A4 xenografts in nude mice (Example 4); format: in vivo; conditions: 5 mg/kg i.v.
Description: (§2) Before commencement of this study, the xenografts were passaged twice in nude mice. Under sterile conditions, well-grown tumors were cut into 1.5 mm^3 fragments and one such fragment was injected by trocar needle into the right flank of each study animal. […] Individual tumor size (length and width) was measured twice per week with microcalipers. Tumor volume (V) was calculated using the formula: V=(length×width^2)/2. Individual relative tumor volume (RTV) was calculated using the formula: RTV=Vt/V0, where Vt is the tumor volume on the day of measurement and V0 is the tumor volume on the day of first treatment. Therapeutic effect of the test article or control article was expressed in terms of TIC (%), using the formula: TIC (%) (mean RTV of the treated group/mean RTV of the control group)×100%; and in terms of % Inhibition, using the formula: % Inhibition=100%−T/C %.
The 1.5 mm^3 fragments were then used for s.c. implantation into the test animals.

[4] = system: Human Cervical Cancer Hela Xenografts; experiment: Human cervical cancer Hela xenografts in nude mice (Example 2); format: in vivo; conditions: 5 mg/kg i.v.
Description: as §2
Then 1.5 mm^3 fragments were prepared for s.c. implantation into the animals.

[5] = system: Human Colon Cancer HT-29 Xenografts; experiment: Human colon cancer HT-29 xenografts in nude mice (Example 3); format: in vivo; conditions: 5 mg/kg i.v.
Description: as §2
Then, 1.5 mm^3 fragments were prepared for s.c. implantation into the test animals.

human hepatoma SMMC-7721 = experiment: Human hepatoma SMMC-7721 xenografts in nude mice (Example 1); format: in vivo; conditions: 5 mg/kg i.v.
Description: The test article was used without dilution. It was stored at 4° C. until thawed for injection.
The animals used were 4-6 weeks old male BALB/cA nu/nu mice, weighing about 23±2 g, obtained from the Shanghai Institute of Materia Medica (Shanghai, P.R. China). The study protocol was reviewed by the Committee on the Use and Care of Animals of Shanghai Institute of Materia Medica for compliance with regulations, and Committee approval was obtained prior to study initiation. Wherever possible, procedures used in this study were designed to avoid or minimize discomfort, distress, and pain to the animals. Animals that experience severe or chronic pain or distress that could not be relieved were painlessly euthanized, in accordance to regulations. Animals were housed 6 to a cage. They were ear-marked with ear hole punch identification. The room temperature was maintained at 25° C.±1° C. Lighting was set at 12 hr on and 12 hr off. Food was provided ad libitum. City tap water, filtered with a 5 micrometer (μm) filter, was provided to the animals ad libitum via water bottles. Neither the Study Director nor Huiyang Life Science and Technology Corp. was aware of any contaminant in the food or water that would interfere with or influence the intent and purpose of this study.
The test article (rSIFN-co) and the vehicle control were each administered intratumorally (i.t.). The test article was administered in a volume of 0.05 ml-0.15 ml per mouse per treatment, depending on the group to which the animal was assigned. […] Normal saline was injected in a volume of 0.15 ml per mouse, which was used as vehicle control.
Animals were assigned to treatment groups randomly. Initially, all animals were placed in one large animal cage. For assignment to the study, they were later separately housed, with 6 animals per cage per treatment group. Groups 1 and 2 are Control groups in which the animals were each administered the vehicle every other day after the first treatment. […] The animals in Groups 4, 5 and 6 were each given rSIFN-co every other day after the first treatment at 0.15 mg/mouse (Group 4) or 0.10 mg/mouse (Group 5) or 0.05 mg/mouse (Group 6), respectively. Tumor growth was monitored by measuring the length and width of each tumor twice a week during the course of the study. Each animal was also weighed twice a week during the course of the study.
as §2

Row | Structure (SMILES) | level of apoptosis-related molecular markers (procaspase-3, procaspase-8, PARP, cleaved caspase-3, cleaved caspase-8) [1] | level of apoptosis-related molecular markers (procaspase-3, procaspase-8, PARP, cleaved caspase-3, cleaved caspase-8) [2] | TV (mm^3, mean ± SD) (D0) ([3]; day 0, start of treatment) | TV (mm^3, mean ± SD) (D21) ([3]; day 21) | TV (mm^3, mean ± SD) (D0) ([4]; day 0, start of treatment) | TV (mm^3, mean ± SD) (D28) ([4]; day 28) | TV (mm^3, mean ± SD) (D0) ([5]; day 0, start of treatment) | TV (mm^3, mean ± SD) (D28) ([5]; day 28) | TV (mm^3, mean ± SD) (D0) (human hepatoma SMMC-7721; day 0, start of treatment) | TV (mm^3, mean ± SD) (D21) (human hepatoma SMMC-7721; day 21)
1 | O=c1[nH]cc(F)c(=O)[nH]1 [5FU, reference compound] | significant reduction of in the level of procaspase-3, procaspase-8 and PARP, but exhibited an enhanced level of cleaved caspase-3 and cleaved caspase-8 | significant reduction of in the level of procaspase-3, procaspase-8 and PARP, but exhibited an enhanced level of cleaved caspase-3 and cleaved caspase-8 | – | – | – | – | – | – | – | –
2 | CO[C@@]12[C@H](COC(N)=O)C3=C(C(=O)C(C)=C(N)C3=O)N1C[C@@H]1N[C@@H]12 [MMC, Mitomycin C, reference compound] | – | – | 166 ± 42 mm^3 | 1831 ± 540 mm^3 | 130 ± 28 mm^3 | 676 ± 358 mm^3 | 132 ± 22 mm^3 | 395 ± 95 mm^3 | 125 ± 35 mm^3 | 621 ± 247 mm^3
